Series [1] deals with T1, Anoctamin-2 (Homo sapiens) (UniProt Q9NQ90).
T1 sequence (whole entry): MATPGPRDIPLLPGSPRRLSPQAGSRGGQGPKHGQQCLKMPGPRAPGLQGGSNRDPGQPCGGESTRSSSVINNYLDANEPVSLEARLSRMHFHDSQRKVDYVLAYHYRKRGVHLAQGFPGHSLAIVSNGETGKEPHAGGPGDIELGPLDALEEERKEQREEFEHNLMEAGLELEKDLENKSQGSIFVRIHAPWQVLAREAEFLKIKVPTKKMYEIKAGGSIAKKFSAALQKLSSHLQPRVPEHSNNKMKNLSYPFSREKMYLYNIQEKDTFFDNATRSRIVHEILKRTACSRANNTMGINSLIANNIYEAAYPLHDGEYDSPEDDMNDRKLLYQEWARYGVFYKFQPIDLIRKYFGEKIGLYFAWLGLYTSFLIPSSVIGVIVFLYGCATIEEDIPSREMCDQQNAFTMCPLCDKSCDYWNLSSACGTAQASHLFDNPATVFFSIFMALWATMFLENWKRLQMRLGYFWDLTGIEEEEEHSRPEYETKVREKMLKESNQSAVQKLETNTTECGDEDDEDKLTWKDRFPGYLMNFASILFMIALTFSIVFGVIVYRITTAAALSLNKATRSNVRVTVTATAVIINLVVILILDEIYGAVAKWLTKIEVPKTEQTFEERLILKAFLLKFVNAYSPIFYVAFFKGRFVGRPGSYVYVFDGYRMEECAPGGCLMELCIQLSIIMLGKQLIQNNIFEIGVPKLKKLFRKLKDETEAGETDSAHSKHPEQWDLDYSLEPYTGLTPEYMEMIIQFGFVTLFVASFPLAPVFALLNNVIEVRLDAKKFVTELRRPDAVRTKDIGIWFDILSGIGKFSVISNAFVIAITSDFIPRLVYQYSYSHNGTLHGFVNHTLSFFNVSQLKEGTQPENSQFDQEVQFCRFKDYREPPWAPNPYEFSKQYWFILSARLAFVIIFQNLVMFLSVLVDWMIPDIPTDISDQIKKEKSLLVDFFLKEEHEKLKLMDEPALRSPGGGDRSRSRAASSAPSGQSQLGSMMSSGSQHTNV
The series can be described thus: Inhibition of human ANO2 expressed in HEK293 cells at 30 uM incubated for 5 mins by whole cell patch clamp electrophysiology relative to control. Type of series: cell-based.

The subject of series [2] is Mus musculus. In words: Analgesic activity in C57BL/6 mouse model of formalin-induced allodynia assessed as reduction on foot licking pain response at 40 mg/kg,po measured after 10 mins. Type of series: functional, organism-based.
The next series has as its target T2, Anoctamin-1 (Homo sapiens, UniProt Q5XXA6).
T2 sequence (Q5XXA6 whole entry): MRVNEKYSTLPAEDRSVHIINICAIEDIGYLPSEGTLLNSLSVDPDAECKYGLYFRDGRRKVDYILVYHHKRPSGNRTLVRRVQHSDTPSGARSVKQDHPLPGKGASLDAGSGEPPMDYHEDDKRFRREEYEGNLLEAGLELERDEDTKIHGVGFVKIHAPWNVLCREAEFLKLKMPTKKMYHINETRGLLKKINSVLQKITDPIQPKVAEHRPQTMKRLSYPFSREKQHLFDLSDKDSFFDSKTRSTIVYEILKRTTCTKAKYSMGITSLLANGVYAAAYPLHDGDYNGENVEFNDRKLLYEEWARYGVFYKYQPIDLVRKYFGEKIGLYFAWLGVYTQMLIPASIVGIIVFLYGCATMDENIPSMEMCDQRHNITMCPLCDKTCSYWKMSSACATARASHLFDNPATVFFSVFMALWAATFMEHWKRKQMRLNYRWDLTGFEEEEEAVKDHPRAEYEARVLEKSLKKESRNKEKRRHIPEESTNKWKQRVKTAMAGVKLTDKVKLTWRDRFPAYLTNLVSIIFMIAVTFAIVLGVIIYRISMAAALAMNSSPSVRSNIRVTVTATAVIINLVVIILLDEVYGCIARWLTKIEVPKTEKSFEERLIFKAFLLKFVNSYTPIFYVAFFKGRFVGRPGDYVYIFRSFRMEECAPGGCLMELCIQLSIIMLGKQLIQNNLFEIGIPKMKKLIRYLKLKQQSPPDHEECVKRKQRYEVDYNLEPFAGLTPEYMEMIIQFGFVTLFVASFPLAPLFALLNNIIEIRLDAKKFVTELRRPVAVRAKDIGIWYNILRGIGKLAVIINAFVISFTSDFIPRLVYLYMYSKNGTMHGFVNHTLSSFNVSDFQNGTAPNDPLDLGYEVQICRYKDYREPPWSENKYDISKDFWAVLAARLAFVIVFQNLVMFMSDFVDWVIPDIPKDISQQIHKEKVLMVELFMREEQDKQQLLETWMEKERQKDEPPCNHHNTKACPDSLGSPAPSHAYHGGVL
In words: Inhibition of YFP tagged ANO1 (unknown origin) expressed in FRT cells incubated for 24 hrs by fluorescence plate reader assay. The class given is cell-based.

Series [3] deals with Voltage-dependent N-type calcium channel subunit alpha-1B (Homo sapiens) (UniProt Q00975). The series can be described thus: Inhibition of Cav2.2 (unknown origin) at a holding potential +10 mV at 10 uM by whole cell patch clamp electrophysiology relative to control. On the technique in general: In patch-clamp work, channel activity is measured electrically.
Chain of Voltage-dependent N-type calcium channel subunit alpha-1B (Homo sapiens) (Q00975 whole entry, looked up, tested part not stated): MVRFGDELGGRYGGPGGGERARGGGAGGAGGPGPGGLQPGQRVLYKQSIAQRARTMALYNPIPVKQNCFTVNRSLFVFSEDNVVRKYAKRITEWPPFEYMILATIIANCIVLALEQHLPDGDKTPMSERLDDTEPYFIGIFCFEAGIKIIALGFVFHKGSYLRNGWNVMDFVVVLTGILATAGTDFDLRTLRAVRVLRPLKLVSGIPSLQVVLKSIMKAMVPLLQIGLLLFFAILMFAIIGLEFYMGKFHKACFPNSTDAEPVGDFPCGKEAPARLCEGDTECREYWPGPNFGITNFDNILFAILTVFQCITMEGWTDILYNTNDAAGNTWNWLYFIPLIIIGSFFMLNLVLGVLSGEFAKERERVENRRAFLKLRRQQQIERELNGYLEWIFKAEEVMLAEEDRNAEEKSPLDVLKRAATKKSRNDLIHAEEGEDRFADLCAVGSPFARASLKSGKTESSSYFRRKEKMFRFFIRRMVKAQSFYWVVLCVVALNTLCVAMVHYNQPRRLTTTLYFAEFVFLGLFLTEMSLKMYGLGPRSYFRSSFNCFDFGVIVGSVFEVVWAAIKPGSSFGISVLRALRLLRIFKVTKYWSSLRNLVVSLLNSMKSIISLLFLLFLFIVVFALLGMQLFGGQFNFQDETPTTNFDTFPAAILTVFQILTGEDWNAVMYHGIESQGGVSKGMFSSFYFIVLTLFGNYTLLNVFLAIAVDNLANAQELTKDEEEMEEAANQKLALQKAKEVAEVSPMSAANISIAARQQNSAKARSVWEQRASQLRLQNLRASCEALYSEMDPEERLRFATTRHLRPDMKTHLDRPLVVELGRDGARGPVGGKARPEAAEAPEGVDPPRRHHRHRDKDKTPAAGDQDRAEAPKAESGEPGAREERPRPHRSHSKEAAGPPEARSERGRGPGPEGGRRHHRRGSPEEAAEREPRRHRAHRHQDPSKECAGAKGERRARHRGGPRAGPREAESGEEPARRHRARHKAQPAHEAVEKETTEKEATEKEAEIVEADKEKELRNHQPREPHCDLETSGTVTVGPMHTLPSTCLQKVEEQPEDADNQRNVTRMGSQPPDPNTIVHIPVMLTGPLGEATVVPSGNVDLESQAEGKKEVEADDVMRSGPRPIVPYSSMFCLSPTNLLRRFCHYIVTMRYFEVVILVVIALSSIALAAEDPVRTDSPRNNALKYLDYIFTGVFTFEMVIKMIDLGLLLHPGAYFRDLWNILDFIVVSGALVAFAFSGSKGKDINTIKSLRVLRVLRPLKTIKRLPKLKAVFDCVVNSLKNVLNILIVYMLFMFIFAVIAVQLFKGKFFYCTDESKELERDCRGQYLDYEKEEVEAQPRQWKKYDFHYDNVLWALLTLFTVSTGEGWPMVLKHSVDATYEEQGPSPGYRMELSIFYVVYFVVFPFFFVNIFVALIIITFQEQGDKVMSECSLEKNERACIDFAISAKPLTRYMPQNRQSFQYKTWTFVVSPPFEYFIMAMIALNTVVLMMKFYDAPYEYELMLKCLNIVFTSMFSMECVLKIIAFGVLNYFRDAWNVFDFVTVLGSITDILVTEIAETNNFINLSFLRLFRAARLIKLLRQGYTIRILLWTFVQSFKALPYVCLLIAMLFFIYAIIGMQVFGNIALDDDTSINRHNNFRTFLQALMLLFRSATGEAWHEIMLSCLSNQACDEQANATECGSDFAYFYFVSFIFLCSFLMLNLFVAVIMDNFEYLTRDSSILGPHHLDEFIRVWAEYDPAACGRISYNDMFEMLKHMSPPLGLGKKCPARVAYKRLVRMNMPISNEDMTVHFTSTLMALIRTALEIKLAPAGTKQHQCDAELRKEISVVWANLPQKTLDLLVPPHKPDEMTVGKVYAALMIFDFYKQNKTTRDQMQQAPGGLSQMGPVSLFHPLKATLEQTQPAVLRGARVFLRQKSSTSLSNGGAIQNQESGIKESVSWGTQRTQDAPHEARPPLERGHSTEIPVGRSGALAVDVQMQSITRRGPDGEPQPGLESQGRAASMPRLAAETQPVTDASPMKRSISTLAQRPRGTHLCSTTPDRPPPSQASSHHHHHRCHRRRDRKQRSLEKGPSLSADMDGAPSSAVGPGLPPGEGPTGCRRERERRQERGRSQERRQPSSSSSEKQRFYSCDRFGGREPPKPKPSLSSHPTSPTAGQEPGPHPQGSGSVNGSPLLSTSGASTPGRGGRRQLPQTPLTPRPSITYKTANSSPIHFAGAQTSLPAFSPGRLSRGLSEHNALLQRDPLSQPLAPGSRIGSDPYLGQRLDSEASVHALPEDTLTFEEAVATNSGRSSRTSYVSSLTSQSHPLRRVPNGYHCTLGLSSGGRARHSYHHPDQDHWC
The test system of series [4] is Mus musculus. The series can be described thus: Analgesic activity in C57BL/6 mouse model of formalin-induced allodynia assessed as reduction on foot licking pain response at 20 mg/kg,po measured after 10 mins. The class given is functional, organism-based.
In series [5] the target is Transient receptor potential cation channel subfamily V member 1 (Homo sapiens) (UniProt Q8NER1). In words: Inhibition of TRPV1 (unknown origin) at a holding potential +100 mV at 10 uM by whole cell patch clamp electrophysiology relative to control.
Chain of Transient receptor potential cation channel subfamily V member 1 (Homo sapiens) (Q8NER1 whole entry): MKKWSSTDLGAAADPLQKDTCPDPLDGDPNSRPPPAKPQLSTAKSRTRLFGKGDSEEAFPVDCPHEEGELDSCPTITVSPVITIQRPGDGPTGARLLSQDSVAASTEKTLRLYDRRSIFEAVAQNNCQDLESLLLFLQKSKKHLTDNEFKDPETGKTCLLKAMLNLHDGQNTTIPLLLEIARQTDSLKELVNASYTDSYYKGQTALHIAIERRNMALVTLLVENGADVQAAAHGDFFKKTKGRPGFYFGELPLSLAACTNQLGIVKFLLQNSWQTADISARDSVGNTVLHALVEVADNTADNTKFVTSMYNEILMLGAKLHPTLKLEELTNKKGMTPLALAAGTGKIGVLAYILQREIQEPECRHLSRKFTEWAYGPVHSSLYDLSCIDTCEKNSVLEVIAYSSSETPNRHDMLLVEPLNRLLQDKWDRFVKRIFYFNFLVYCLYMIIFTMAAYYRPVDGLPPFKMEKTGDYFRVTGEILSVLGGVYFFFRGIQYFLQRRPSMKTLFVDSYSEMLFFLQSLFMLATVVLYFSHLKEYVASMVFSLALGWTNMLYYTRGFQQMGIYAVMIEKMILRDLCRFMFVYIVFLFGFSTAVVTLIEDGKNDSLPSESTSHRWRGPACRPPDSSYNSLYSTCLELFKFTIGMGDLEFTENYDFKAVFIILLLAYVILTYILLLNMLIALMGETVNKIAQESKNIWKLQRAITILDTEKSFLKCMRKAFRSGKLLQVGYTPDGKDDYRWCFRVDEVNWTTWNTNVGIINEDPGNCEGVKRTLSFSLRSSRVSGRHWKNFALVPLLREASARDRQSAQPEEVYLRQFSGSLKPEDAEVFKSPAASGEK
Series [6] has the same target. In words: Inhibition of TRPV1 (unknown origin) at a holding potential +100 mV at 30 uM by whole cell patch clamp electrophysiology relative to control.
Series [7] addresses T3, Anoctamin-1 (Homo sapiens) (UniProt Q5XXA6).
T3 sequence (whole entry): T2 sequence (Q5XXA6 whole entry)
The series can be described thus: Inhibition of YFP tagged ANO1 (unknown origin) expressed in FRT cells at 30 uM incubated for 24 hrs by whole cell patch clamp electrophysiology relative to control. The class given is cell-based.

Series [8] can be described thus: Cytotoxicity against human HEK293 cells assessed as inhibition of cell growth at 30 uM incubated for 72 hrs by CCK-8 assay. The class given is toxicity, cell-based. On the technique in general: Formazan colour is commonly taken as a measure of viable cells.
For series [9], the target named is Voltage-gated inwardly rectifying potassium channel KCNH2 (Homo sapiens, UniProt Q12809). The series can be described thus: Cardiotoxicity against human ERG expressed in HEK293 cells by patch clamp assay. The class given is toxicity, cell-based.
Chain of Voltage-gated inwardly rectifying potassium channel KCNH2 (Q12809 whole entry): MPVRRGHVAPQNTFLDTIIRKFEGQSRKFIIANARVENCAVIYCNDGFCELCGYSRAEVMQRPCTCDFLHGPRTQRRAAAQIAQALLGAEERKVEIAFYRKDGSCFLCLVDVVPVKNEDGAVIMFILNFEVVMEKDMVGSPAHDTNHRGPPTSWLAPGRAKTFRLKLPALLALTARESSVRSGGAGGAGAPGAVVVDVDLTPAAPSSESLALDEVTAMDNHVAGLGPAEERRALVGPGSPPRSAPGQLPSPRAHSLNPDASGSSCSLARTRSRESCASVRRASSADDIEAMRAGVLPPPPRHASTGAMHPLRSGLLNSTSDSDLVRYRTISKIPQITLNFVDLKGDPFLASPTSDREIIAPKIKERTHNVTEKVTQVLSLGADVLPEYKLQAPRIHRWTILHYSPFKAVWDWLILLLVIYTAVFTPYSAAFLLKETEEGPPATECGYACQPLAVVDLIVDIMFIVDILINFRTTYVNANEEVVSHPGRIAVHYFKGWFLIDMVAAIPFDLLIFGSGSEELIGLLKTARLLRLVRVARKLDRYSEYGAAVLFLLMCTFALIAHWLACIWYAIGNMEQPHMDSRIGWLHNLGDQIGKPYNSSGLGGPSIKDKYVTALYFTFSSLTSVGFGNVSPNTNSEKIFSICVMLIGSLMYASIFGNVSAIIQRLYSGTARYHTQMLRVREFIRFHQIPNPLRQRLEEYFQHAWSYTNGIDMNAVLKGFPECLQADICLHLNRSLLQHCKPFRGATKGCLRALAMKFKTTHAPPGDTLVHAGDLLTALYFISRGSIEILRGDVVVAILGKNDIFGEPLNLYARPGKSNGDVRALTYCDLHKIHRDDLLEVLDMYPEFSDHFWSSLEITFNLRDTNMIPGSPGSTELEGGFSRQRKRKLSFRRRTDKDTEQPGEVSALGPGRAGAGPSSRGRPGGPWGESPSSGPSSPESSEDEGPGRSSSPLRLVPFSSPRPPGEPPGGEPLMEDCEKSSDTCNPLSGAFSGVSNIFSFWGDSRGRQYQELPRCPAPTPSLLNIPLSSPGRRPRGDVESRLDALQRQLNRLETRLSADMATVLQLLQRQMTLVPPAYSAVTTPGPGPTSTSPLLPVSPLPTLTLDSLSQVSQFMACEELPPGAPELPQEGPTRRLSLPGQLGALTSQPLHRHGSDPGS
Series [10] has as its target Voltage-gated potassium channel, KQT; KCNQ2(Kv7.2)/KCNQ3(Kv7.3) (Homo sapiens) (UniProt O43526+O43525). In words: Inhibition of KCNQ2/3 (unknown origin) at a holding potential -40 mV at 30 uM by whole cell patch clamp electrophysiology relative to control.

Calls of active or inactive are those of the source. The rule behind the calls is not given here.

As a reminder, the inhibition is the change of the read-out against control, counted positive when it falls. Usually IC50 stands for the concentration that gives 50% inhibition.

`CC(C)(C)C1CCc2c(sc(NC(=O)c3ccco3)c2C(=O)O)C1` (configuration not stated) displayed an inhibition in series [1] of 71.2%. Moreover, the outcome in the series on Mus musculus [2] was Active.

On Anoctamin-1, `O=C(Nc1scc(-c2ccc(Cl)cc2)c1C(=O)O)c1ccccc1OC(F)(F)F` came in with a concentration for half-maximal inhibition (IC50) of 5.66 µM. `O=C(O)c1c(-c2ccc(Cl)cc2)csc1NC(=O)c1cccc2ccccc12` displayed an IC50 on Anoctamin-1 of 0.79 µM.

As to `O=C(Nc1scc(-c2ccc(Cl)cc2)c1C(=O)O)c1cc(Cl)ccc1Cl`, the IC50 against Anoctamin-1 was determined as 0.27 µM. This IC50 is about 2.9-fold lower than that of the compound before. The same measure, in the same setting: the value for `O=C(Nc1scc(-c2ccc(Cl)cc2)c1C(=O)O)c1c(Cl)cccc1Cl` was 12.1 µM. As to `O=C(Nc1scc(-c2ccc(Cl)cc2)c1C(=O)O)c1cnccn1`, the IC50 against Anoctamin-1 worked out at 4.01 µM. This IC50 is about 3-fold lower than that of the compound before.

On Anoctamin-1, `O=C(Nc1scc(-c2ccc(Cl)cc2)c1C(=O)O)c1cc(Br)ccc1F` registered an IC50 of 59.8 µM. For `O=C(Nc1scc(-c2ccc(Cl)cc2)c1C(=O)O)c1cccc2c1OCCO2`, the IC50 against Anoctamin-1 is more than 100 µM. The same measure, in the same setting: the value for `O=C(Nc1scc(-c2ccc(Cl)cc2)c1C(=O)O)c1cc(Cl)ccc1C(F)(F)F` was 1.59 µM; that for `COc1ccc(Cl)cc1C(=O)Nc1scc(-c2ccc(Cl)cc2)c1C(=O)O` was more than 100 µM; that for `O=C(O)c1c(-c2ccc(Cl)cc2)csc1NC(=O)c1cccc2cccnc12` was more than 300 µM. On Anoctamin-1, `Cc1ccc(Cl)cc1C(=O)Nc1scc(-c2ccc(Cl)cc2)c1C(=O)O` had an IC50 of more than 100 µM. On Anoctamin-1, `O=C(Nc1scc(-c2ccc(Cl)cc2)c1C(=O)O)c1cc(I)ccc1Cl` returned a half-inhibitory concentration (IC50) of 78.9 µM. In other words, the double-digit micromolar range. Still for that read-out and setting: with `O=C(Nc1scc(-c2ccc(Cl)cc2)c1C(=O)O)c1ccncc1` the figure was 6.27 µM.

With CADMIUM DICHLORIDE, in [3], the inhibition came to 91.4%. In the case of `Cc1ccc(Cl)c(C(=O)Nc2scc(-c3ccc(Cl)cc3)c2C(=O)O)c1`, the IC50 at Anoctamin-1 was found to be 1.79 µM. This counts as single-digit micromolar. Still for that read-out and setting: the value for `O=C(Nc1scc(-c2ccc(Cl)cc2)c1C(=O)O)c1cccc(Cl)c1Cl` was 1.94 µM; that for `O=C(Nc1scc(-c2ccc(Cl)cc2)c1C(=O)O)c1cc(F)ccc1I` was 2.21 µM; that for `O=C(Nc1scc(-c2ccc(Cl)cc2)c1C(=O)O)c1cc(C(F)(F)F)ccc1Cl` was 36.9 µM. The same measure, in the same setting: the value for `O=C(Nc1scc(-c2ccc(Cl)cc2)c1C(=O)O)c1cc(F)ccc1Cl` was 6.55 µM. In turn, `O=C(Nc1scc(-c2ccc(Cl)cc2)c1C(=O)O)c1cc(F)ccc1Br` came in with an IC50 on Anoctamin-1 of 0.96 µM. This IC50 is about 6.8-fold lower than that of the compound before. Take `O=C(Nc1scc(-c2ccc(Cl)cc2)c1C(=O)O)c1cc(I)ccc1F`: at Anoctamin-1, 4.49 µM corresponded to half-maximal inhibition (IC50). The same measure, in the same setting: the value for `O=C(Nc1scc(-c2ccc(Cl)cc2)c1C(=O)O)c1cc(Cl)ccc1I` was 12 µM. For `CC(C)C[C@H](CN)CC(=O)O`, in the series on Mus musculus [4], the result was Active.

With `O=C(Nc1scc(-c2ccc(Cl)cc2)c1C(=O)O)c1cccc2c1OCO2`, the IC50 on Anoctamin-1 was more than 100 µM.

For the compound `O=C(O)c1c(-c2ccc(Cl)cc2)csc1NC(=O)c1cccc2ncccc12`, the midpoint of inhibition against Anoctamin-1, the IC50, lay at 6.99 µM. This counts as single-digit micromolar. The same measure, in the same setting: the value for `O=C(Nc1scc(-c2ccc(Cl)cc2)c1C(=O)O)c1cccnc1` was 70.6 µM; that for `CC(=O)Oc1ccccc1C(=O)Nc1ncc([N+](=O)[O-])s1` [NITAZOXANIDE] was 0.424 µM; that for `Cc1ccsc1C(=O)Nc1scc(-c2ccc(Cl)cc2)c1C(=O)O` was 3.12 µM. Same read-out and setting: the value for `O=C(Nc1scc(-c2ccc(Cl)cc2)c1C(=O)O)c1cc(Br)ccc1Cl` was 83.5 µM.

In the case of `O=C(Nc1scc(-c2ccc(Cl)cc2)c1C(=O)O)c1ccc(Cl)cc1Cl`, on Anoctamin-1, it took 1.24 µM to reach half-maximal inhibition (IC50). On the same count and under the same terms, the value for `COc1ccc(Cl)c(C(=O)Nc2scc(-c3ccc(Cl)cc3)c2C(=O)O)c1` was 35.9 µM. `COc1cc(CNC(=O)CCCC/C=C/C(C)C)ccc1O`: the inhibition in [5] was found to be 96.7%. Turning to `CC(C)Cc1ccc(C(C)C(=O)O)cc1` (configuration not stated), the outcome in the series on Mus musculus [2] was Active.

Take `O=C(Nc1scc(-c2ccc(Cl)cc2)c1C(=O)O)c1cc(Cl)ccc1Br`: the inhibition was 26.4% in series [6], 92.6% in series [1] and 32.1% in [7]. Also, the inhibition at 72 h, 30 µM in series [8] was less than 10%. For the same compound, the IC50 against Anoctamin-1 was 0.029 µM; in [9], more than 30 µM. Compound `O=C(Nc1scc(-c2ccc(Cl)cc2)c1C(=O)O)c1cc(Cl)ccc1F` had an IC50 on Anoctamin-1 of 8.77 µM. `COc1ccccc1/N=N/C(=O)COc1ccc(Cl)cc1C`: the inhibition in [1] was 12.6%; in [7], 42.7%. This compound also displayed an IC50 at Anoctamin-1 of 1.07 µM. The compound `O=C(Nc1ccc([N+](=O)[O-])cc1Cl)c1cc(Cl)ccc1O` [NICLOSAMIDE] came in with an IC50 at Anoctamin-1 of 0.028 µM. This lies in the double-digit nanomolar range. Take `CCOC(=O)Nc1ccc(NCc2ccc(F)cc2)cc1N`: the inhibition in series [10] turned out to be 100%.

For the origin of these results see ChEMBL document CHEMBL5120859, “Optimization of 4-arylthiophene-3-carboxylic acid derivatives as inhibitors of ANO1: Lead optimization studies toward their analgesic efficacy for inflammatory pain” (Eur J Med Chem, 2022).
